“And” between values parts separate entries of the source, which are not always exact repeats. Equal values may be shown once.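 Results reflect a 48-hour exposure of cells in 96-well plates to compound at five concentrations. Abbreviation: GI50, concentration required for 50% inhibition of growth. TGI marks complete inhibition of growth.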
Key:
Assay in all cases: NCI anticancer screen, dose series, 48 h
HCT-116 colon = system: HCT-116 colon
IGROV1 ovarian = system: IGROV1 ovarian
KM12 colon = system: KM12 colon
OVCAR-5 ovarian = system: OVCAR-5 ovarian
RPMI-8226 leukemia = system: RPMI-8226 leukemia
RXF 393 renal = system: RXF 393 renal
SK-MEL-2 melanoma = system: SK-MEL-2 melanoma
SW-620 colon = system: SW-620 colon
U251 CNS = system: U251 CNS
SK-OV-3 ovarian = system: SK-OV-3 ovarian

Structure (SMILES) | GI50 (HCT-116 colon) | TGI (HCT-116 colon) | GI50 (IGROV1 ovarian) | TGI (IGROV1 ovarian) | GI50 (KM12 colon) | TGI (KM12 colon) | GI50 (OVCAR-5 ovarian) | TGI (OVCAR-5 ovarian) | GI50 (RPMI-8226 leukemia) | TGI (RPMI-8226 leukemia) | GI50 (RXF 393 renal) | TGI (RXF 393 renal) | GI50 (SK-MEL-2 melanoma) | TGI (SK-MEL-2 melanoma) | GI50 (SW-620 colon) | TGI (SW-620 colon) | GI50 (U251 CNS) | TGI (U251 CNS) | TGI (SK-OV-3 ovarian)
COC(=O)C(C)NP(=O)(OCc1cccc(Cn2cnc3c(N)ncnc32)c1)Oc1ccccc1 (stereo not given) | 47 µM | > 100 µM | > 100 µM | > 100 µM | 68.2 µM | > 100 µM | > 100 µM | > 100 µM | > 100 µM | > 100 µM | 27.8 µM | > 100 µM | > 100 µM | > 100 µM | > 100 µM | > 100 µM | > 100 µM | > 100 µM | –
C/C=C(/CCC1NCCc2c1[nH]c1ccccc21)[Si](C)(C)C (stereo not given) | – | – | – | > 100 µM and 21.1 µM | – | > 100 µM and 12.1 µM | – | > 100 µM and 14.6 µM | – | – | – | – | – | – | – | – | – | > 100 µM and 13.6 µM | > 100 µM and 26.2 µM
O=c1c(-c2ccccc2)c(SCCCN2CCCCC2)n(-c2ccccc2)c(=S)n1-c1ccccc1 | – | – | – | 35.7 µM | – | 41.6 µM | – | > 100 µM | – | 37.7 µM | – | 27.7 µM | – | 30.3 µM | – | 41.9 µM | – | 29.1 µM | 45.4 µM
O=c1[nH]c2ccccc2c2oc3ccccc3c12 | – | – | – | > 100 µM | – | > 100 µM | – | – | – | – | – | > 100 µM | – | – | – | > 100 µM | – | > 100 µM | > 100 µM
COC(=O)C1=C(O)C(C(=O)OC)[C@@]2(O)[C@@H](C(=O)OC)[C@H](C)C[C@@H]1[C@@H]2C(=O)OC (stereo not given in full) | – | > 100 µM | – | – | – | 58.1 µM | – | 98.9 µM | – | 71.5 µM | – | 58.9 µM | – | 58.9 µM | – | – | – | 53.2 µM | 72.9 µM
NCCCCNOCCCN | – | > 100 µM | – | > 100 µM | – | > 100 µM | – | > 100 µM | – | > 100 µM | – | > 100 µM | – | > 100 µM | – | > 100 µM | – | > 100 µM | > 100 µM
CC(C)(CCCCC(C)(C)NC1=NCCO1)NC1=NCCO1 | – | > 10 µM | – | > 10 µM | – | > 10 µM | – | > 10 µM | – | > 10 µM | – | > 10 µM | – | > 10 µM | – | > 10 µM | – | > 10 µM | > 10 µM
CC(C)(C)OC(=O)CC(NC(=O)OCc1ccccc1)NC(=O)OC(C)(C)C (stereo not given) | 52.1 µg/mL | – | – | – | 40.3 µg/mL | – | – | – | 32.8 µg/mL | – | – | – | 48.1 µg/mL | – | – | – | 67.5 µg/mL | – | –
C=CCN1C(=O)NC(=O)/C(=C/c2c3ccccc3cc3ccccc23)C1=O | – | 30.8 µM | – | > 10 µM | – | 31.8 µM | – | 44.4 µM | – | – | – | 34.6 µM | – | 38.7 µM | – | > 100 µM | – | 36.5 µM | 66 µM

— PubChem BioAssay (NCI)
